Values joined by “and” are separate entries in the source; they are usually repeats but may differ in a detail not shown here. Identical values can stand only once. Inconclusive results and toxic doses are left out. Square brackets hold non-standard residues; d marks the D form. Peptide text beside a SMILES is read from it. ξ: configuration not given here. ξNva = CCCC(N)C(=O)O
Test system: P388 leukemia ip, CD2F1 mice, survival T/C
Assay: NCI In Vivo Anticancer Drug Screen. Data for tumor model P388 Leukemia (intraperitoneal) in CD2F1 (CDF1) mice
Details: endpoint: median survival time, higher = longer survival
In short: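 Mice carrying the transplanted tumor received test compound or vehicle. Survival was recorded in each group, and the value is the treated-group measurement divided by that of the vehicle-treated control group.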

[1] = dose: 100.0 mg/kg/injection, schedule: Q01DX009 (ip), vehicle: saline with Tween-80
[2] = dose: 200.0 mg/kg/injection, schedule: Q01DX009 (ip), vehicle: saline with Tween-80
[3] = dose: 400.0 mg/kg/injection, schedule: Q01DX009 (ip), vehicle: saline with Tween-80
[4] = dose: 50.0 mg/kg/injection, schedule: Q01DX005 (ip), vehicle: Klucel (hydroxypropylcellulose) (HPC)
[5] = dose: 50.0 mg/kg/injection, schedule: Q01DX009 (ip), vehicle: Klucel (hydroxypropylcellulose) (HPC)
[6] = dose: 100.0 mg/kg/injection, schedule: Q01DX009 (ip), vehicle: Klucel (hydroxypropylcellulose) (HPC)
[7] = dose: 200.0 mg/kg/injection, schedule: Q01DX009 (ip), vehicle: Klucel (hydroxypropylcellulose) (HPC)
[8] = dose: 25.0 mg/kg/injection, schedule: Q04DX003 (ip), vehicle: saline with Tween-80
[9] = dose: 50.0 mg/kg/injection, schedule: Q04DX003 (ip), vehicle: saline with Tween-80
[10] = dose: 100.0 mg/kg/injection, schedule: Q04DX003 (ip), vehicle: saline with Tween-80
[11] = dose: 60.0 mg/kg/injection, schedule: Q01DX005 (ip), vehicle: saline with Tween-80
[12] = dose: 100.0 mg/kg/injection, schedule: Q01DX009 (ip), vehicle: saline
[13] = dose: 60.0 mg/kg/injection, schedule: Q01DX005 (ip), vehicle: saline
[14] = dose: 120.0 mg/kg/injection, schedule: Q01DX005 (ip), vehicle: saline

CN(C)S(=O)(=O)c1ncnc2nc[nH]c12
T/C [1]: 90 % of control | T/C (dose: 100.0 mg/kg/injection, schedule: Q04DX003 (ip), vehicle: saline sonified): 100 % of control | T/C [2]: 90 % of control | T/C (dose: 200.0 mg/kg/injection, schedule: Q04DX003 (ip), vehicle: saline sonified): 91 % of control | T/C [3]: 100 % of control | T/C (dose: 400.0 mg/kg/injection, schedule: Q04DX003 (ip), vehicle: saline sonified): 91 % of control

C[Si](C)(C)CC[Si]12OCCN(CCO1)C1CCCCC1O2 (configuration not stated)
T/C [4]: 93 % of control | T/C (dose: 100.0 mg/kg/injection, schedule: Q01DX005 (ip), vehicle: Klucel (hydroxypropylcellulose) (HPC)): 101 % of control | T/C (dose: 200.0 mg/kg/injection, schedule: Q01DX005 (ip), vehicle: Klucel (hydroxypropylcellulose) (HPC)): 97 % of control

COc1ccc(C(c2cc(C(C)(C)C)cc(C(C)(C)C)c2O)N2CCCCC2)cc1 (configuration not stated)
T/C (dose: 50.0 mg/kg/injection, schedule: Q01DX005 (ip), vehicle: distilled water + alcohol): 97 % of control | T/C (dose: 100.0 mg/kg/injection, schedule: Q01DX005 (ip), vehicle: distilled water + alcohol): 100 % of control | T/C (dose: 200.0 mg/kg/injection, schedule: Q01DX005 (ip), vehicle: distilled water + alcohol): 99 % of control

CC1CC(c2ccccc2)C(c2ccc(Cl)cc2)C(=O)O1 (configuration not stated)
T/C [5]: 96 % of control | T/C [6]: 100 % of control | T/C [7]: 100 % of control

COc1ccc2c(c1)OC/C(=C\c1ccc([N+](=O)[O-])o1)C2=O
T/C [1]: 91 % of control | T/C [2]: 86 % of control | T/C [3]: 92 % of control

O=[N+]([O-])O.O=[N+]([O-])O.[Cu].c1cnc2c(c1)ccc1cccnc12
T/C (dose: 1.56 mg/kg/injection, schedule: Q04DX002 (ip), vehicle: saline): 101 % of control | T/C (dose: 6.25 mg/kg/injection, schedule: Q04DX002 (ip), vehicle: saline): 99 % of control and 106 % of control

CC1(C)COC(=O)C(C#N)=C1CBr
T/C (dose: 12.5 mg/kg/injection, schedule: Q01DX005 (ip), vehicle: Klucel (hydroxypropylcellulose) (HPC)): 105 % of control | T/C (dose: 25.0 mg/kg/injection, schedule: Q01DX005 (ip), vehicle: Klucel (hydroxypropylcellulose) (HPC)): 105 % of control | T/C [4]: 99 % of control and 116 % of control

C[CH2][Sn]([Cl])([CH2]C)[c]1cc[c]([Sn]([Cl])([CH2]C)[CH2]C)cc1
T/C (dose: 0.02 mg/kg/injection, schedule: Q01DX005 (ip), vehicle: Klucel (hydroxypropylcellulose) (HPC)): 118 % of control

COc1cc(C[C@H](CO)[C@@H](CO)Cc2ccc3c(c2)OCO3)cc(OC)c1OC
T/C (dose: 6.25 mg/kg/injection, schedule: Q04DX002 (ip), vehicle: saline with Tween-80): 95 % of control | T/C (dose: 12.5 mg/kg/injection, schedule: Q04DX002 (ip), vehicle: saline with Tween-80): 102 % of control | T/C (dose: 25.0 mg/kg/injection, schedule: Q04DX002 (ip), vehicle: saline with Tween-80): 106 % of control

O=C1N=c2ccc(Br)cc2=C1c1sc(=O)n(Cc2nc3ccccc3[nH]2)c1O
T/C (dose: 100.0 mg/kg/injection, schedule: Q01DX001 (ip), vehicle: Klucel (hydroxypropylcellulose) (HPC)): 95 % of control | T/C (dose: 200.0 mg/kg/injection, schedule: Q01DX001 (ip), vehicle: Klucel (hydroxypropylcellulose) (HPC)): 93 % of control | T/C (dose: 400.0 mg/kg/injection, schedule: Q01DX001 (ip), vehicle: Klucel (hydroxypropylcellulose) (HPC)): 90 % of control

C/C1=C\C(=O)OCC23CC(O)C4(C)OC4C2OC2CC(OC(=O)/C=C/C=C/C(C(C)O)OCC1O)C3(C)C21CO1 (configuration not stated)
T/C (dose: 1.25 mg/kg/injection, schedule: Q01DX005 (ip), vehicle: saline + alcohol): 120 % of control | T/C (dose: 2.5 mg/kg/injection, schedule: Q01DX005 (ip), vehicle: saline + alcohol): 120 % of control | T/C (dose: 5.0 mg/kg/injection, schedule: Q01DX005 (ip), vehicle: saline + alcohol): 155 % of control | T/C (dose: 10.0 mg/kg/injection, schedule: Q01DX005 (ip), vehicle: saline + alcohol): 172 % of control

S=c1nc(N2CCOCC2)n(/C=C/c2ccccc2)c(=S)n1C(=N/C=C/c1ccccc1)N1CCOCC1
T/C [8]: 113 % of control | T/C [9]: 89 % of control | T/C [10]: 91 % of control and 97 % of control | T/C (dose: 400.0 mg/kg/injection, schedule: Q04DX003 (ip), vehicle: saline with Tween-80): 87 % of control

O=C(CCC(=O)Nc1cccc([N+](=O)[O-])c1)CC(=O)c1ccc(Cl)cc1
T/C [11]: 96 % of control | T/C (dose: 120.0 mg/kg/injection, schedule: Q01DX005 (ip), vehicle: saline with Tween-80): 105 % of control | T/C (dose: 240.0 mg/kg/injection, schedule: Q01DX005 (ip), vehicle: saline with Tween-80): 96 % of control

CCCCCCCCCCCCCCCCCCN(CCCCCCCCCCCCCCCCCC)c1ccc(/C=C/c2ccnc3ccccc23)cc1
T/C (dose: 25.0 mg/kg/injection, schedule: Q01DX009 (ip), vehicle: Klucel (hydroxypropylcellulose) (HPC)): 104 % of control | T/C [5]: 95 % of control | T/C [6]: 95 % of control | T/C [7]: 104 % of control

CN(C)C(P1(=O)OC(C)(C)C(C)(C)O1)P1(=O)OC(C)(C)C(C)(C)O1
T/C (dose: 50.0 mg/kg/injection, schedule: Q01DX005 (ip), vehicle: saline): 104 % of control | T/C (dose: 100.0 mg/kg/injection, schedule: Q01DX005 (ip), vehicle: saline): 99 % of control | T/C (dose: 200.0 mg/kg/injection, schedule: Q01DX005 (ip), vehicle: saline): 98 % of control

Nc1ccc2nc(N)sc2c1
T/C (dose: 50.0 mg/kg/injection, schedule: Q01DX009 (ip), vehicle: saline): 100 % of control | T/C [12]: 93 % of control | T/C (dose: 200.0 mg/kg/injection, schedule: Q01DX009 (ip), vehicle: saline): 101 % of control

CCOc1ccc(O)c(CN2CCN(Cc3cc(OCC)ccc3O)CC2)c1
T/C (dose: 15.0 mg/kg/injection, schedule: Q01DX005 (ip), vehicle: saline with Tween-80): 100 % of control | T/C (dose: 30.0 mg/kg/injection, schedule: Q01DX005 (ip), vehicle: saline with Tween-80): 100 % of control | T/C [11]: 98 % of control and 124 % of control

CCOC(=O)Nc1cc(NC(C)CCCN(CC)CC)c2ncc(-c3cc(OC)c(OC)c(OC)c3)nc2n1 (configuration not stated) (tested in a mixture with another compound)
T/C (dose: 66.0 mg/kg/injection, schedule: Q01DX009 (ip), vehicle: saline): 118 % of control | T/C [12]: 109 % of control | T/C (dose: 150.0 mg/kg/injection, schedule: Q01DX009 (ip), vehicle: saline): 104 % of control

COc1ccc(C=NCCN=Cc2ccc(OC)cc2)cc1
T/C [8]: 100 % of control | T/C [9]: 109 % of control | T/C [10]: 108 % of control | T/C (dose: 200.0 mg/kg/injection, schedule: Q04DX003 (ip), vehicle: saline with Tween-80): 110 % of control

CC1C2OC(=O)C1(C)c1ccccc1C2=O (configuration not stated)
T/C (dose: 12.5 mg/kg/injection, schedule: Q01DX001 (ip), vehicle: Klucel (hydroxypropylcellulose) (HPC)): 109 % of control | T/C (dose: 25.0 mg/kg/injection, schedule: Q01DX001 (ip), vehicle: Klucel (hydroxypropylcellulose) (HPC)): 99 % of control | T/C (dose: 50.0 mg/kg/injection, schedule: Q01DX001 (ip), vehicle: Klucel (hydroxypropylcellulose) (HPC)): 103 % of control

CCCC(NC(=O)CNC(=O)CN)C(=O)O (stereo not drawn) (H-Gly-Gly-[ξNva]-OH)
T/C [13]: 98 % of control | T/C [14]: 106 % of control | T/C (dose: 240.0 mg/kg/injection, schedule: Q01DX005 (ip), vehicle: saline): 106 % of control

CCN(CC)CCNC(c1ccc(OC)cc1)C(Cl)(Cl)Cl (configuration not stated)
T/C [13]: 94 % of control | T/C [14]: 94 % of control

COc1cc2c(cc1O)C(O)CCCC2 (configuration not stated)
T/C (dose: 50.0 mg/kg/injection, schedule: Q01DX009 (ip), vehicle: saline with Tween-80): 107 % of control | T/C [1]: 108 % of control | T/C [2]: 110 % of control
